The record followed here is ChEMBL document CHEMBL1132808, “Solid-phase synthesis of di- and tripeptidic hydroxamic acids as inhibitors of procollagen C-proteinase” (Bioorg Med Chem Lett, 2000).

This test has as its target T1, Bone morphogenetic protein 1 (Homo sapiens, UniProt P13497).
T1 sequence (P13497 whole entry): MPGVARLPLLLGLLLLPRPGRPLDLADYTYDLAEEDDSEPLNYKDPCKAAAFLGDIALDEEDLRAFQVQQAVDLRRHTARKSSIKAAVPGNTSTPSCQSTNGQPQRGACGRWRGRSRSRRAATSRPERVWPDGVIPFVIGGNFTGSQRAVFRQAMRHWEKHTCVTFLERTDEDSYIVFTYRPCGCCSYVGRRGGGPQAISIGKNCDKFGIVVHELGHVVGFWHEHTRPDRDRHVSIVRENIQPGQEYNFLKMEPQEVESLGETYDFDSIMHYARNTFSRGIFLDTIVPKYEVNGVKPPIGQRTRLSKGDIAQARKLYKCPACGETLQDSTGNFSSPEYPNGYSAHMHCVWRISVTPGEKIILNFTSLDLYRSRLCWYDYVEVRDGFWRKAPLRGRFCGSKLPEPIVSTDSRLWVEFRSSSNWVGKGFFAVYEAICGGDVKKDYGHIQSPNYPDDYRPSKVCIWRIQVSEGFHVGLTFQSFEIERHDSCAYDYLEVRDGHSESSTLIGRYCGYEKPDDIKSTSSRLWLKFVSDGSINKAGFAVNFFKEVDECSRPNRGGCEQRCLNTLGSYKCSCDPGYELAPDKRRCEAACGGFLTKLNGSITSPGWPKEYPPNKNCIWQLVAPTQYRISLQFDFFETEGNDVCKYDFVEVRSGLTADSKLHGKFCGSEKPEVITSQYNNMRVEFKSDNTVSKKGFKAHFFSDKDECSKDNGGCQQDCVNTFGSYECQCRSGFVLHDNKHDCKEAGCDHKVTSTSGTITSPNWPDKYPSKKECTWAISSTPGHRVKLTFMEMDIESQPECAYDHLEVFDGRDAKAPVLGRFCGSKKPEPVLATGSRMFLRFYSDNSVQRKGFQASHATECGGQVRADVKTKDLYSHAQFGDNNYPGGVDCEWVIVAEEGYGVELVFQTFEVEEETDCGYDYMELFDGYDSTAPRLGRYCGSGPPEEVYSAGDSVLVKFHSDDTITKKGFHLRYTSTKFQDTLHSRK
Put plainly: Inhibitory effect against Procollagen C-terminal proteinase.

Where a SMILES comes first, the peptide text is derived from it. The star is where a group is joined. NHOH = ON*

For orientation: IC50 means the concentration at which inhibition is half-maximal. Lower therefore signals greater potency in that assay. Regarding `CC(=O)N[C@@H](CCCNC(=N)N)C(=O)N[C@@H](C)C(=O)NO` (Ac-Arg-Ala-{NHOH}), the IC50 was more than 800000 nM.

In turn, `CC[C@@H](C)[C@@H](NCN(Cc1ccc(F)cc1)C(=O)c1ccc(C(C)(C)C)cc1)C(=O)N[C@H](Cc1cscn1)C(=O)NO` came in with a concentration for half-maximal inhibition (IC50) of 140 nM.
